# Values of other authors in patent US20040142049A1, “Compositions having tnf production inhibitory effect and tnf production inhibitors” (priority 2001, published 2004).
# System: TNF
# Details: background art, prior publications
smiles,measurement,value
COc1cc(/C=C/C(=O)CC(=O)/C=C/c2ccc(O)c(OC)c2)ccc1O [curcumin],TNF production inhibitory effect (in words),has a TNF production inhibitory effect
